# According to patent publication US6645918B1, “N-([1,2,4]triazoloazinyl)thiophenesulfonamide compounds and their use as herbicides” (Dow AgroSciences LLC, priority 2000, dated 2003):
# Assays:
# [1] = tested on: crabgrass (Digitaria sanguinalis); experiment: Preemergence herbicidal activity, crabgrass; type: in vivo; settings: soil spray, visual after 3 weeks, 0 no injury, 100 complete kill or no germination
# Summary of the method: (§1)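 Application was to bare soil of seeded pots at rates no higher than 4.48 kg/ha. Three weeks on, plant condition was compared visually with untreated pots and expressed as percent injury.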
# [2] = tested on: Rox orange sorghum (Sorghum bicolor); experiment: Preemergence herbicidal activity, Rox orange sorghum; type: in vivo; settings: soil spray, visual after 3 weeks, 0 no injury, 100 complete kill or no germination
# Summary of the method: as §1
# [3] = tested on: cocklebur (Xanthium strumarium); experiment: Postemergence herbicidal activity, cocklebur; type: in vivo; settings: foliar spray, visual after 2 weeks, 0 no injury, 100 complete kill
# Summary of the method: (§2)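 Spray solutions in a carrier of acetone, water, isopropanol, DMSO, crop oil concentrate and Triton X-155 were applied to young plants (first–second true leaf); 1 ppm gave about 1 g/ha. Two weeks later, damage compared with untreated plants was rated from 0 to 100% kill.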
# wild oats (Avena fatua) [4] = experiment: Postemergence herbicidal activity, wild oats; type: in vivo; settings: foliar spray, visual after 2 weeks, 0 no injury, 100 complete kill
# Summary of the method: as §2
# [5] = tested on: barnyardgrass (Echinochloa crus-galli); experiment: Preemergence herbicidal activity, barnyardgrass; type: in vivo; settings: soil spray, visual after 3 weeks, 0 no injury, 100 complete kill or no germination
# Summary of the method: as §1
# [6] = tested on: giant foxtail (Setaria faberi); experiment: Preemergence herbicidal activity, giant foxtail; type: in vivo; settings: soil spray, visual after 3 weeks, 0 no injury, 100 complete kill or no germination
# Summary of the method: as §1
# [7] = tested on: lambsquarters (Chenopodium album); experiment: Preemergence herbicidal activity, lambsquarters; type: in vivo; settings: soil spray, visual after 3 weeks, 0 no injury, 100 complete kill or no germination
# Summary of the method: as §1
# [8] = tested on: morningglory (Ipomoea hederacea); experiment: Preemergence herbicidal activity, morningglory; type: in vivo; settings: soil spray, visual after 3 weeks, 0 no injury, 100 complete kill or no germination
# Summary of the method: as §1
# [9] = tested on: morningglory (Ipomoea hederacea); experiment: Postemergence herbicidal activity, morningglory; type: in vivo; settings: foliar spray, visual after 2 weeks, 0 no injury, 100 complete kill
# Summary of the method: as §2
# [10] = tested on: pigweed (Amaranthus retroflexus); experiment: Postemergence herbicidal activity, pigweed; type: in vivo; settings: foliar spray, visual after 2 weeks, 0 no injury, 100 complete kill
# Summary of the method: as §2
# [11] = tested on: pigweed (Amaranthus retroflexus); experiment: Preemergence herbicidal activity, pigweed; type: in vivo; settings: soil spray, visual after 3 weeks, 0 no injury, 100 complete kill or no germination
# Summary of the method: as §1
# [12] = tested on: chickweed (Stellaria media); experiment: Postemergence herbicidal activity, chickweed; type: in vivo; settings: foliar spray, visual after 2 weeks, 0 no injury, 100 complete kill
# Summary of the method: as §2
# [13] = tested on: blackgrass (Alopecurus myosuroides); experiment: Postemergence herbicidal activity, blackgrass; type: in vivo; settings: foliar spray, visual after 2 weeks, 0 no injury, 100 complete kill
# Summary of the method: as §2
# wild oats (Avena fatua) [14] = experiment: Preemergence herbicidal activity, wild oats; type: in vivo; settings: soil spray, visual after 3 weeks, 0 no injury, 100 complete kill or no germination
# Summary of the method: as §1
# viola (Viola tricolor) = experiment: Postemergence herbicidal activity, viola; type: in vivo; settings: foliar spray, visual after 2 weeks, 0 no injury, 100 complete kill
# Summary of the method: as §2
# [15] = tested on: giant foxtail (Setaria faberi); experiment: Postemergence herbicidal activity, giant foxtail; type: in vivo; settings: foliar spray, visual after 2 weeks, 0 no injury, 100 complete kill
# Summary of the method: as §2
# [16] = tested on: wild poinsettia (Euphorbia heterophylla); experiment: Preemergence herbicidal activity, wild poinsettia; type: in vivo; settings: soil spray, visual after 3 weeks, 0 no injury, 100 complete kill or no germination
# Summary of the method: as §1
# [17] = tested on: velvetleaf (Abutilion theophrasti); experiment: Preemergence herbicidal activity, velvetleaf; type: in vivo; settings: soil spray, visual after 3 weeks, 0 no injury, 100 complete kill or no germination
# Summary of the method: as §1
# [18] = tested on: cocklebur (Xanthium strumarium); experiment: Preemergence herbicidal activity, cocklebur; type: in vivo; settings: soil spray, visual after 3 weeks, 0 no injury, 100 complete kill or no germination
# Summary of the method: as §1
# [19] = tested on: wild buckwheat (Polygonum convolvulus); experiment: Postemergence herbicidal activity, wild buckwheat; type: in vivo; settings: foliar spray, visual after 2 weeks, 0 no injury, 100 complete kill
# Summary of the method: as §2
# [20] = tested on: lambsquarters (Chenopodium album); experiment: Postemergence herbicidal activity, lambsquarters; type: in vivo; settings: foliar spray, visual after 2 weeks, 0 no injury, 100 complete kill
# Summary of the method: as §2
# [21] = tested on: blackgrass (Alopecurus myosuroides); experiment: Preemergence herbicidal activity, blackgrass; type: in vivo; settings: soil spray, visual after 3 weeks, 0 no injury, 100 complete kill or no germination
# Summary of the method: as §1
# [22] = tested on: velvetleaf (Abutilion theophrasti); experiment: Postemergence herbicidal activity, velvetleaf; type: in vivo; settings: foliar spray, visual after 2 weeks, 0 no injury, 100 complete kill
# Summary of the method: as §2
# [23] = tested on: Rox orange sorghum (Sorghum bicolor); experiment: Postemergence herbicidal activity, Rox orange sorghum; type: in vivo; settings: foliar spray, visual after 2 weeks, 0 no injury, 100 complete kill
# Summary of the method: as §2
smiles,measurement,setting,value
"COc1ccsc1S(=O)(=O)Nc1nc2c(OC)cnc(OC)n2n1 [Compound 1, 3-Methoxy-N-(5,8-dimethoxy[1,2,4]triazolo[1,5-c]pyrimidin-2-yl)thiophene-2-sulfonamide]",DIGSA preemergence injury score 0-100,[1]; 17.5 g/Ha,100%
same,SORBI preemergence injury score 0-100,[2]; 17.5 g/Ha,100%
same,XANST postemergence injury score 0-100,[3]; 3.9 ppm,50%
same,AVEFA postemergence injury score 0-100,wild oats (Avena fatua) [4]; 3.9 ppm,99%
same,ECHCG preemergence injury score 0-100,[5]; 17.5 g/Ha,100%
same,melting point,,227 to 228 °C
same,SETFA preemergence injury score 0-100,[6]; 17.5 g/Ha,100%
same,CHEAL preemergence injury score 0-100,[7]; 17.5 g/Ha,98%
same,IPOHE preemergence injury score 0-100,[8]; 17.5 g/Ha,85%
same,IPOHE postemergence injury score 0-100,[9]; 3.9 ppm,85%
same,AMARE postemergence injury score 0-100,[10]; 3.9 ppm,95%
same,AMARE preemergence injury score 0-100,[11]; 17.5 g/Ha,100%
same,STEME postemergence injury score 0-100,[12]; 3.9 ppm,75%
same,ALOMY postemergence injury score 0-100,[13]; 3.9 ppm,95%
same,AVEFA preemergence injury score 0-100,wild oats (Avena fatua) [14]; 17.5 g/Ha,100%
same,VIOTR postemergence injury score 0-100,viola (Viola tricolor); 3.9 ppm,70%
same,SETFA postemergence injury score 0-100,[15]; 3.9 ppm,100%
same,EPHHL preemergence injury score 0-100,[16]; 17.5 g/Ha,100%
same,ABUTH preemergence injury score 0-100,[17]; 17.5 g/Ha,98%
same,XANST preemergence injury score 0-100,[18]; 17.5 g/Ha,70%
same,POLCO postemergence injury score 0-100,[19]; 3.9 ppm,98%
same,CHEAL postemergence injury score 0-100,[20]; 3.9 ppm,75%
same,ALOMY preemergence injury score 0-100,[21]; 17.5 g/Ha,100%
same,ABUTH postemergence injury score 0-100,[22]; 3.9 ppm,75%
same,SORBI postemergence injury score 0-100,[23]; 3.9 ppm,98%
COc1cc(Cl)sc1S(=O)(=O)Nc1nc2c(OC)cnc(OC)n2n1 [Compound 3],DIGSA preemergence injury score 0-100,[1]; 35 g/Ha,95%
same,SORBI preemergence injury score 0-100,[2]; 35 g/Ha,90%
same,XANST postemergence injury score 0-100,[3]; 31 ppm,100%
same,AVEFA postemergence injury score 0-100,wild oats (Avena fatua) [4]; 31 ppm,80%
same,ECHCG preemergence injury score 0-100,[5]; 35 g/Ha,70%
same,SETFA preemergence injury score 0-100,[6]; 35 g/Ha,90%
same,CHEAL preemergence injury score 0-100,[7]; 35 g/Ha,95%
same,IPOHE preemergence injury score 0-100,[8]; 35 g/Ha,60%
same,IPOHE postemergence injury score 0-100,[9]; 31 ppm,70%
same,AMARE postemergence injury score 0-100,[10]; 31 ppm,100%
same,AMARE preemergence injury score 0-100,[11]; 35 g/Ha,95%
same,STEME postemergence injury score 0-100,[12]; 31 ppm,70%
same,ALOMY postemergence injury score 0-100,[13]; 31 ppm,70%
same,AVEFA preemergence injury score 0-100,wild oats (Avena fatua) [14]; 35 g/Ha,70%
same,VIOTR postemergence injury score 0-100,viola (Viola tricolor); 31 ppm,80%
same,SETFA postemergence injury score 0-100,[15]; 31 ppm,85%
same,EPHHL preemergence injury score 0-100,[16]; 35 g/Ha,70%
same,ABUTH preemergence injury score 0-100,[17]; 35 g/Ha,50%
same,XANST preemergence injury score 0-100,[18]; 35 g/Ha,70%
same,POLCO postemergence injury score 0-100,[19]; 31 ppm,85%
same,CHEAL postemergence injury score 0-100,[20]; 31 ppm,95%
same,ALOMY preemergence injury score 0-100,[21]; 35 g/Ha,80%
same,ABUTH postemergence injury score 0-100,[22]; 31 ppm,70%
same,SORBI postemergence injury score 0-100,[23]; 31 ppm,90%
